{"source": "paper PMC10126264", "about": "“Synergistic effect and antibiofilm activity of the antimicrobial peptide K11 with conventional antibiotics against multidrug-resistant and extensively drug-resistant Klebsiella pneumoniae” (Frontiers in Cellular and Infection Microbiology, 2023)", "key": {"[1]": {"details": "ref Jin-Jiang et al., 2012; cited from earlier work", "description": "K11 is a synthetic peptide derived from natural AMPs (cecropin A1, melittin, and maganin 2), composed of 20 amino acids ([…]-NH2). […] Moreover, K11 has also been successfully used in vivo as a topic hydrogel solution against Acinetobacter baumannii-infected wounds ([Rishi et al., 2018])."}, "K. pneumoniae ATCC 70063 [2]": {"test_system": "K. pneumoniae ATCC 70063", "method": "The effects of various cations and serum on the antimicrobial activity of K11 were investigated against K. pneumoniae ATCC 70063 and K. pneumoniae ATCC BAA-1706 by the MIC assay, as described above. […] Subsequently, serially 2-fold diluted K11 solutions were prepared in CAMHB, and aliquots of each peptide solution were added to a 96-well plate. An equal volume of bacterial suspension was added, and the mixtures were incubated at 37°C for 20-24 h ([Ko et al., 2019]). For serum stability, 2 mg/mL of K11 was prepared in solution with 25% and 50% FBS and incubated for 1 h at 37°C, then heat […] for 30 min at 60°C. A series of 2-fold dilutions of K11 were performed in CAMHB and transferred to a 96-well plate. The diluted bacterial suspension was added to the well, and mixtures were incubated for 20-24 h at 37°C ([Oliva et al., 2018]). The antimicrobial activity was determined by measuring the MICs."}, "[3]": {"test_system": "K. pneumoniae ATCC BAA-1706", "method": "(§1) The effects of various cations and serum on the antimicrobial activity of K11 were investigated against K. pneumoniae ATCC 70063 and K. pneumoniae ATCC BAA-1706 by the MIC assay, as described above. For salt stability, 2 mg/mL of K11 was dissolved in solutions containing different salts at their physiological concentrations; NaCl (100, 150, and 200 mM), MgCl2 (0.5, 1 and 2 mM), and FeCl3 (1, 4, and 8 mM), then incubated for 1 h at 37°C. Subsequently, serially 2-fold diluted K11 solutions were prepared in CAMHB, and aliquots of each peptide solution were added to a 96-well plate. An equal volume of bacterial suspension was added, and the mixtures were incubated at 37°C for 20-24 h ([Ko et al., 2019]). For serum stability, 2 mg/mL of K11 was prepared in solution with 25% and 50% FBS and incubated for 1 h at 37°C, then heat […] for 30 min at 60°C. A series of 2-fold dilutions of K11 were performed in CAMHB and transferred to a 96-well plate. The diluted bacterial suspension was added to the well, and mixtures were incubated for 20-24 h at 37°C ([Oliva et al., 2018]). The antimicrobial activity was determined by measuring the MICs."}, "K. pneumoniae ATCC 70063 [4]": {"test_system": "K. pneumoniae ATCC 70063", "method": "as §1", "remark": "listed apart in the source"}, "[5]": {"test_system": "K. pneumoniae ATCC BAA-1706", "remark": "listed apart in the source", "quoted_text": "The effects of various cations and serum on the antimicrobial activity of K11 were investigated against K. pneumoniae ATCC 70063 and K. pneumoniae ATCC BAA-1706 by the MIC assay, as described above. For salt stability, 2 mg/mL of K11 was dissolved in solutions containing different salts at their physiological concentrations; NaCl (100, 150, and 200 mM), MgCl2 (0.5, 1 and 2 mM), and FeCl3 (1, 4, and 8 mM), then incubated for 1 h at 37°C. Subsequently, serially 2-fold diluted K11 solutions were prepared in CAMHB, and aliquots of each peptide solution were added to a 96-well plate. An equal volume of bacterial suspension was added, and the mixtures were incubated at 37°C for 20-24 h ([Ko et al., 2019]). […] The antimicrobial activity was determined by measuring the MICs."}, "[6]": {"test_system": "K. pneumoniae ATCC BAA-1706", "method": "The ability of K11 to inhibit bacterial growth was determined by the broth microdilution method ([Clinical and Laboratory Standards Institute, 2018]). Briefly, a series of 2-fold dilutions of K11 were prepared from 1,024 to 2 µg/mL in cation-adjusted Mueller-Hinton broth (CAMHB), Then 50 µL of each peptide dilution was added to each well of polystyrene 96-well U-bottom microplates. The log-phase cultures were adjusted to 0.5 McFarland standard and diluted 1:100 in CAMHB to provide the density of 10^6 CFU/mL. Consequently, 50 µL of diluted bacterial suspension was added to wells containing 50 µL of peptide solution, followed by incubation for 20-24 h at 37°C. […] To evaluate MBC, a volume of 10 μL was taken from each well with no visible growth, inoculated on Mueller-Hinton agar (MHA) plates, and incubated at 37°C. The MBC was defined as the lowest concentration of antimicrobials that killed at least 99.9% of the initial inoculums ([Clinical and Laboratory Standards Institute, 1999]).", "remark": "listed apart in the source"}, "[7]": {"details": "K11 2 mg/mL in FeCl3 1 µM, 1 h at 37°C, then MIC in CAMHB"}, "[8]": {"details": "K11 2 mg/mL in FeCl3 4 µM, 1 h at 37°C, then MIC in CAMHB"}, "[9]": {"details": "K11 2 mg/mL in FeCl3 8 µM, 1 h at 37°C, then MIC in CAMHB"}, "[10]": {"details": "K11 2 mg/mL in MgCl2 0.5 mM, 1 h at 37°C, then MIC in CAMHB"}, "[11]": {"details": "K11 2 mg/mL in MgCl2 1 mM, 1 h at 37°C, then MIC in CAMHB"}, "[12]": {"details": "K11 2 mg/mL in MgCl2 2 mM, 1 h at 37°C, then MIC in CAMHB"}, "[13]": {"details": "K11 2 mg/mL in NaCl 100 mM, 1 h at 37°C, then MIC in CAMHB"}, "[14]": {"details": "K11 2 mg/mL in NaCl 200 mM, 1 h at 37°C, then MIC in CAMHB"}, "[15]": {"details": "K11 2 mg/mL in 25% FBS, 1 h at 37°C, then 30 min at 60°C, then MIC in CAMHB"}, "[16]": {"details": "K11 2 mg/mL in 50% FBS, 1 h at 37°C, then 30 min at 60°C, then MIC in CAMHB"}}, "note": "Read-outs that look alike come from different tables or passages of the source. Residues, ends and D or L forms follow the SMILES beside them.", "data": [{"smiles": "CC[C@H](C)[C@H](NC(=O)[C@H](Cc1ccccc1)NC(=O)[C@H](CO)NC(=O)[C@H](CCCCN)NC(=O)[C@H](Cc1c[nH]c2ccccc12)NC(=O)[C@@H](N)CCCCN)C(=O)N[C@@H](CCCCN)C(=O)N[C@@H](CCCCN)C(=O)N[C@@H](CC(C)C)C(=O)N[C@H](C(=O)N[C@@H](CCCCN)C(=O)N[C@@H](CCCCN)C(=O)N[C@@H](Cc1ccccc1)C(=O)N[C@@H](CC(C)C)C(=O)N[C@@H](Cc1c[nH]cn1)C(=O)N[C@@H](CO)C(=O)N[C@@H](C)C(=O)N[C@@H](CCCCN)C(=O)N[C@@H](CCCCN)C(=O)N[C@@H](Cc1ccccc1)C(N)=O)[C@@H](C)O", "note": "[K11] (H-KWKSFIKKLTKKFLHSAKKF-NH2)", "values": [{"measurement": "hemolytic activity", "setting": "[1]", "value": "no hemolytic activity"}, {"measurement": "Antimicrobial activity MIC", "setting": "K. pneumoniae ATCC 70063 [2]; Control, salt concentration 0", "value": 4, "unit": "µg/mL"}, {"measurement": "Antimicrobial activity MIC", "setting": "K. pneumoniae ATCC 70063 [2]; [7]", "value": 4, "unit": "µg/mL"}, {"measurement": "Antimicrobial activity MIC", "setting": "K. pneumoniae ATCC 70063 [2]; [8]", "value": 4, "unit": "µg/mL"}, {"measurement": "Antimicrobial activity MIC", "setting": "K. pneumoniae ATCC 70063 [2]; [9]", "value": 4, "unit": "µg/mL"}, {"measurement": "Antimicrobial activity MIC", "setting": "K. pneumoniae ATCC 70063 [2]; [10]", "value": 4, "unit": "µg/mL"}, {"measurement": "Antimicrobial activity MIC", "setting": "K. pneumoniae ATCC 70063 [2]; [11]", "value": 4, "unit": "µg/mL"}, {"measurement": "Antimicrobial activity MIC", "setting": "K. pneumoniae ATCC 70063 [2]; [12]", "value": 8, "unit": "µg/mL"}, {"measurement": "Antimicrobial activity MIC", "setting": "K. pneumoniae ATCC 70063 [2]; [13]", "value": 4, "unit": "µg/mL"}, {"measurement": "Antimicrobial activity MIC", "setting": "K. pneumoniae ATCC 70063 [2]; K11 2 mg/mL in NaCl 150 mM, 1 h at 37°C, then MIC in CAMHB", "value": 4, "unit": "µg/mL"}, {"measurement": "Antimicrobial activity MIC", "setting": "K. pneumoniae ATCC 70063 [2]; [14]", "value": 4, "unit": "µg/mL"}, {"measurement": "Antimicrobial activity MIC", "setting": "[3]; 0% FBS (control)", "value": 2, "unit": "µg/mL"}, {"measurement": "Antimicrobial activity MIC", "setting": "[3]; [15]", "value": 2, "unit": "µg/mL"}, {"measurement": "Antimicrobial activity MIC", "setting": "[3]; [16]", "value": 2, "unit": "µg/mL"}, {"measurement": "Antimicrobial activity MIC", "setting": "K. pneumoniae ATCC 70063 [4]; 0% FBS (control)", "value": 4, "unit": "µg/mL"}, {"measurement": "Antimicrobial activity MIC", "setting": "K. pneumoniae ATCC 70063 [4]; [15]", "value": 4, "unit": "µg/mL"}, {"measurement": "Antimicrobial activity MIC", "setting": "K. pneumoniae ATCC 70063 [4]; [16]", "value": 4, "unit": "µg/mL"}, {"measurement": "Antimicrobial activity MIC", "setting": "[5]; Control, salt concentration 0", "value": 2, "unit": "µg/mL"}, {"measurement": "Antimicrobial activity MIC", "setting": "[5]; [7]", "value": 2, "unit": "µg/mL"}, {"measurement": "Antimicrobial activity MIC", "setting": "[5]; [8]", "value": 2, "unit": "µg/mL"}, {"measurement": "Antimicrobial activity MIC", "setting": "[5]; [9]", "value": 2, "unit": "µg/mL"}, {"measurement": "Antimicrobial activity MIC", "setting": "[5]; [10]", "value": 2, "unit": "µg/mL"}, {"measurement": "Antimicrobial activity MIC", "setting": "[5]; [11]", "value": 2, "unit": "µg/mL"}, {"measurement": "Antimicrobial activity MIC", "setting": "[5]; [12]", "value": 2, "unit": "µg/mL"}, {"measurement": "Antimicrobial activity MIC", "setting": "[5]; [13]", "value": 2, "unit": "µg/mL"}, {"measurement": "Antimicrobial activity MIC", "setting": "[5]; K11 2 mg/mL in NaCl 150mM, 1 h at 37°C, then MIC in CAMHB", "value": 4, "unit": "µg/mL"}, {"measurement": "Antimicrobial activity MIC", "setting": "[5]; [14]", "value": 4, "unit": "µg/mL"}, {"measurement": "MIC", "setting": "[6]; broth microdilution in CAMHB, 20-24 h at 37°C", "value": 2, "unit": "µg/mL"}, {"measurement": "MBC", "setting": "[6]; wells with no visible growth plated on MHA, 37°C, kills at least 99.9% of inoculum", "value": 2, "unit": "µg/mL"}]}]}
